Columns and labels:
[1] = biological target: T1, Multidrug resistance-associated protein 1 (Homo sapiens, UniProt P33527); experiment: Inhibition of vanadate-sensitive ATPase basal activity of human MRP1 expressed in Sf9 cells assessed as generation of inorganic phosphate at 10 uM by spectrophotometry in presence of glutathione; details: sf9, 10 µM
MRP1 [2] = biological target: T2, MRP1 (Homo sapiens, UniProt P33527); experiment: Inhibition of human MRP1 expressed in Spodoptera frugiperda Sf9 cells assessed as decrease in NEM-GS induced vanadate-sensitive ATPase activity measured by generation of inorganic phosphate at 30 uM by spectrophotometry in presence of glutathione; details: Spodoptera frugiperda Sf9 cells expressing human MRP1, probe NEM-GS
[3] = biological target: T1, Multidrug resistance-associated protein 1; experiment: Inhibition of human MRP1 expressed in Spodoptera frugiperda Sf9 cells assessed as inhibition of NEM-GS-induced vanadate-sensitive ATPase activity measured by generation of inorganic phosphate by spectrophotometry in presence of glutathione
MRP1 [4] = biological target: T2, MRP1; experiment: Inhibition of human MRP1 expressed in Spodoptera frugiperda Sf9 cells assessed as decrease in NEM-GS induced vanadate-sensitive ATPase activity measured by generation of inorganic phosphate at 100 uM by spectrophotometry in presence of glutathione; details: Spodoptera frugiperda Sf9 cells expressing human MRP1, probe NEM-GS

T1 sequence (P33527 whole entry): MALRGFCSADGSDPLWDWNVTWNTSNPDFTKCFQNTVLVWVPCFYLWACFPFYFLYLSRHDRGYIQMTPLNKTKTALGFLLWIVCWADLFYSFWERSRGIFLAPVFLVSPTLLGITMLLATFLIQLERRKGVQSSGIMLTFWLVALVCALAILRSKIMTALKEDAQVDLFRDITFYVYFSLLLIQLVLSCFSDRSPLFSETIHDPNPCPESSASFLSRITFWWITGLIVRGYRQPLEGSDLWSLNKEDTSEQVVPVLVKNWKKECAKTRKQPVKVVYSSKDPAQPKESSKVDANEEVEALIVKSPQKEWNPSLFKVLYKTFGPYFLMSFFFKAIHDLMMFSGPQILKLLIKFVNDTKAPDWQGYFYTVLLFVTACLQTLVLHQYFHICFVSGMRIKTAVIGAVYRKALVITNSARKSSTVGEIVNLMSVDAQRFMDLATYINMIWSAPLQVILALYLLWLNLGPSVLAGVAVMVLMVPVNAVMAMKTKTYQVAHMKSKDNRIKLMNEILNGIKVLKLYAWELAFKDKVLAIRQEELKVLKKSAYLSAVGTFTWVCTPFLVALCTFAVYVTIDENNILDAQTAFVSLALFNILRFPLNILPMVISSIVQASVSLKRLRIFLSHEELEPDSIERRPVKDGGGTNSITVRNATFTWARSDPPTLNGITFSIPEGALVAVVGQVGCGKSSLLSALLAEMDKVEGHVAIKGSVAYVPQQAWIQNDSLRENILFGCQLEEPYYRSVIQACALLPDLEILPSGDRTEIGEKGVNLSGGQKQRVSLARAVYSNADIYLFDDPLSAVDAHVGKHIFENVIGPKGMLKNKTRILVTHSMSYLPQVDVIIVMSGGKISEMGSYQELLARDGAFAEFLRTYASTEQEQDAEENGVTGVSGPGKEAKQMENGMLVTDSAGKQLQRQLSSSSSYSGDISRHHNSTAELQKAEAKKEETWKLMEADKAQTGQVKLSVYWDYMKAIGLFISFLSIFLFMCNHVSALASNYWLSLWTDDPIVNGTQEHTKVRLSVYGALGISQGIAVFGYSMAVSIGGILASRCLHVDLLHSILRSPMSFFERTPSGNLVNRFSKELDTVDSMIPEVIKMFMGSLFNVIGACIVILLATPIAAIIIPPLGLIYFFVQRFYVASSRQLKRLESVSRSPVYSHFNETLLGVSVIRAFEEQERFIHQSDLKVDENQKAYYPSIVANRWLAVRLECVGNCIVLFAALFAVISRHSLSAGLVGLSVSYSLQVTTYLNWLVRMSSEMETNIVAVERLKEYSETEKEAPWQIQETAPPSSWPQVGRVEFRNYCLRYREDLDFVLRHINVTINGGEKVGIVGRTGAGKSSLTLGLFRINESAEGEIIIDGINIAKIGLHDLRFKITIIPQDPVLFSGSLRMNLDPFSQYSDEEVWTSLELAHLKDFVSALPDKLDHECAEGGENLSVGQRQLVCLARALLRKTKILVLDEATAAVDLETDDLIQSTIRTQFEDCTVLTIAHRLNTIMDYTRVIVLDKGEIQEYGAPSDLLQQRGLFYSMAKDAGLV
T2 sequence (P33527 whole entry): as above

Structure (SMILES)	inhibition (INH) [3]	further results
CC1=C(C(=O)Nc2ccccc2)C(c2ccco2)C(C(=O)Nc2ccccc2)=C(C)N1		inhibition (INH) [1]: Active; inhibition at 30 µM (MRP1 [2]): 52.8%
CC1=C(C(=O)Nc2ccccc2)C(c2ccccn2)C(C(=O)Nc2ccccc2)=C(C)N1	Not Active	
CC1=C(C(=O)Nc2ccccc2)C(c2ncc[nH]2)C(C(=O)Nc2ccccc2)=C(C)N1	Not Active	
CC1=C(C(=O)Nc2ccccn2)C(c2ccco2)C(C(=O)Nc2ccccn2)=C(C)N1	Not Active	
CC1=C(C(=O)Nc2ccccn2)C(c2ncc[nH]2)C(C(=O)Nc2ccccn2)=C(C)N1	Not Active	
CC1=C(C(=O)Nc2ccccn2)C(c2ccc[nH]2)C(C(=O)Nc2ccccn2)=C(C)N1		inhibition at 100 µM (MRP1 [4]): 78%; inhibition (INH) [1]: Active; inhibition at 30 µM (MRP1 [2]): 69.8%
CC1=C(C(=O)Nc2ccc(C)cc2)C(c2ncc[nH]2)C(C(=O)Nc2ccc(C)cc2)=C(C)N1	Not Active	

Further lines, with some results ahead:

inhibition (INH) [3]	Structure (SMILES)	further results
Not Active	CC1=C(C(=O)Nc2ccccc2)C(c2cccs2)C(C(=O)Nc2ccccc2)=C(C)N1	
Not Active	CC1=C(C(=O)Nc2ccccc2)C(c2ccc[nH]2)C(C(=O)Nc2ccccc2)=C(C)N1	
Not Active	CC1=C(C(=O)Nc2ccccc2)C(c2ccc(Cl)cc2)C(C(=O)Nc2ccccc2)=C(C)N1	
